In patent US20260184702A1, “SYNTHESIS, PHARMACOLOGY AND USE OF NEW WATER-SOLUBLE AND SELECTIVE FMS-LIKE TYROSINE KINASE3 (FLT3) INHIBITORS” (Universität Regensburg, priority 2022, published 2026):
≈ marks a conversion by molar mass, not a printed value. Entries after “also recorded” stand apart in the source; their conditions may differ. Counter-ions that a name gives are not always drawn. One block for each compound: values may come before it.

Legend:
[1] = Solubility test by UV-Vis spectroscopy of saturated solutions; type: physicochemical; settings: saturated solution; for Solubility Water: ultrapure water
Procedure: All UV-Vis measurements were carried out with an Agilent Cary 60 UV-Vis 2.00 between 800-200 nm. The absorbance was measured with a scan rate of 300.0 nm/min, a data interval of 0.50 nm and an UV-Vis Average Time of 0.10 s. For all measurements a cuvette with 10 mm light path was used. A calibration curve was plotted from several different concentrations and the solubility of the respective compound was determined by measuring the absorbance of a diluted saturated solution. As a blank curve a mixture of ultrapure water and ethanol in a ratio of 1:1 or 5:95 was recorded. For the calibration curve a 100 μM or a 10 μM solution of the compound in an ultrapure water:ethanol (1:1) or (5:95)-mixture was prepared and diluted to obtain at least 6 concentrations. […] The supernatant was taken using a syringe and filtered through a syringe filter (RC Membrane). The saturated solution was diluted with ultrapure water and ethanol to obtain an appropriate concentration in a water:ethanol (1:1) or (5:95)-mixture. The long wave absorbance maximum was used for determination of the solubility (mean values, determination in triplicate). […] By plotting the concentration of the solution against the absorbance values at the previously determined wavelength maximum a calibration curve was obtained (FIG. 1B).

c-KIT = target: T1, c-KIT (Homo sapiens, UniProt P10721); test: Cellular c-KIT phosphorylation assay in Mo7e cells (sandwich-ELISA); type: cell-based; settings: Mo7e cells, 90 min compound, SCF stimulation; read-out: IC50 [nM] inhibition of c-KIT in phosphorylation assay
T1 construct: expresses endogenously a high level of wild-type c-KIT; endogenous in cells; host or cells: Mo7e (human acute megakaryoblastic leukemia)
T1 sequence (P10721 26-976): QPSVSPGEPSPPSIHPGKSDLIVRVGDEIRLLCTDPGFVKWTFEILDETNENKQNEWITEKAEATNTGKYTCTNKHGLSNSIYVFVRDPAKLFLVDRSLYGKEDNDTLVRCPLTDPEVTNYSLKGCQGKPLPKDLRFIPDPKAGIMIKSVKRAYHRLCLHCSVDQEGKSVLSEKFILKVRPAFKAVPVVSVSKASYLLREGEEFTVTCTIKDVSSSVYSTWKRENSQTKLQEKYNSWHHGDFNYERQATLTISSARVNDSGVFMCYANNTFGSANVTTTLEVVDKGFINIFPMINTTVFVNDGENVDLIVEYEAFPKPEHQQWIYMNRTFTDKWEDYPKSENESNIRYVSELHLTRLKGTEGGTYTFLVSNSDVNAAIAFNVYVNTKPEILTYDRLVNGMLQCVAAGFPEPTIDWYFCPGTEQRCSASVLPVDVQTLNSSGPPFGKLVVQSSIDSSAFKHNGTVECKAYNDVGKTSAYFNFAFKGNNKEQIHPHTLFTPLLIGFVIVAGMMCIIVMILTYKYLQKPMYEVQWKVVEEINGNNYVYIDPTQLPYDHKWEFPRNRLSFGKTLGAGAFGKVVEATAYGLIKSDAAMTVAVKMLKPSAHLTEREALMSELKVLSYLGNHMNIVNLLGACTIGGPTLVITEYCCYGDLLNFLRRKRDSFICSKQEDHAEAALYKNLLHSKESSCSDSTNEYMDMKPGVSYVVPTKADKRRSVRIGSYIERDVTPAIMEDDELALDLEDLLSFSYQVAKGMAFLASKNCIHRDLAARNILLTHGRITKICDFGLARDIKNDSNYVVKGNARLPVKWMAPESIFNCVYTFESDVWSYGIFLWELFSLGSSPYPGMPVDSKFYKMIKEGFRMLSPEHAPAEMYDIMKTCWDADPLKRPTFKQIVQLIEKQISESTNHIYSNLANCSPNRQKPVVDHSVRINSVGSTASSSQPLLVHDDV
Procedure: In the cellular c-KIT phosphorylation assay the human acute megakaryoblastic leukemia cell line Mo7e was used, which expresses endogenously a high level of wild-type c-KIT. Stimulation of these cells with human stem cell factor (SCF) results in receptor tyrosine autophosphorylation. Mo7e cells were plated in RPMI supplemented with 20% FCS and 10 ng/ml GM-CSF in multiwell cell culture plates. After serum- and growth factor-starvation overnight cells were incubated with compounds (90 min at 37° C.) in serum-free medium. […] For stimulation, cells were treated with 100 ng/ml SCF for 3 min at room temperature. After cell lysis quantification of receptor autophosphorylation was assessed in 96 well plates via sandwich-ELISA using a kinase specific capture antibody and an anti-phosphotyrosine detection antibody.

human FLT3-ITD = target: T2, human FLT3-ITD (Homo sapiens, UniProt P36888); test: Cellular FLT3-ITD phosphorylation assay in MEF-FLT3-ITD cells (sandwich-ELISA); type: cell-based; settings: 90 min compound, FLT3-ligand stimulation, read-out: IC50 FLT3-ITD [nM] in phosphorylation assay
T2 sequence (P36888 1-993): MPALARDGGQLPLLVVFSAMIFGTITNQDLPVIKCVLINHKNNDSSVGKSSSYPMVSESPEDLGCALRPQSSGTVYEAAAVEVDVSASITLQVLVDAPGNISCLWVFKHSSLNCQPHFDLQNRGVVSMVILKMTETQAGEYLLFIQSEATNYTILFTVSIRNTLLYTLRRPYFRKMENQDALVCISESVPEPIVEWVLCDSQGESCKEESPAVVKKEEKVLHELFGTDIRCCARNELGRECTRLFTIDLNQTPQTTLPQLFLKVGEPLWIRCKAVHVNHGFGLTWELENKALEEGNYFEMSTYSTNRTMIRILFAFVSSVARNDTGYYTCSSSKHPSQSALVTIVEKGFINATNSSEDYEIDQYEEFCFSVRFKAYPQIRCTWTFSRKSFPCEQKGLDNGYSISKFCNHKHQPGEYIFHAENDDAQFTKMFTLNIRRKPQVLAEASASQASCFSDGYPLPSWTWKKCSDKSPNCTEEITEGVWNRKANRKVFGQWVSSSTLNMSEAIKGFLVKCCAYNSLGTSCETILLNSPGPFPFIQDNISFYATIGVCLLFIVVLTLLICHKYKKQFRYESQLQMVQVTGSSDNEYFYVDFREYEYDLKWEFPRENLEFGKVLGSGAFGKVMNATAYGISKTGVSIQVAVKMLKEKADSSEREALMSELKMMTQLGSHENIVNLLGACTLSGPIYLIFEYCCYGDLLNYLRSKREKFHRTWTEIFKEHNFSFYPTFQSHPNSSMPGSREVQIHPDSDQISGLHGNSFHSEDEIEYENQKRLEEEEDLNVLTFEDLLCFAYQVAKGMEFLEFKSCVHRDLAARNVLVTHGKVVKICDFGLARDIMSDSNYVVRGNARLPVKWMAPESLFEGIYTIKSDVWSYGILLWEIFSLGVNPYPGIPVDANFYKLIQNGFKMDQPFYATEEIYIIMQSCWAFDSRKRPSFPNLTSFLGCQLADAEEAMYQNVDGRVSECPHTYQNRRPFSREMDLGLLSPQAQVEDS
Procedure: In the cellular FLT3-ITD phosphorylation assay the murine embryonal fibroblast cell line (MEF) was used, which expresses a high level of exogenously introduced full-length human FLT3-ITD. Stimulation of these cells with human FLT3-Ligand results in receptor tyrosine autophosphorylation. MEF-FLT3-ITD cells were plated in DMEM supplemented with […] in multiwell cell culture plates. After serum-starvation overnight cells were incubated with compounds (90 min at 37° C.) in serum-free medium. […] For stimulation, cells were treated with 50 ng/ml FLT3-ligand for 5 min at room temperature. After cell lysis quantification of receptor autophosphorylation was assessed in 96 well plates via sandwich-ELISA using a kinase specific capture antibody and an antiphosphotyrosine detection antibody.

[2] = test system: EOL-1 (acute myeloid eosinophilic leukemia); test: CellTiter-Blue Cell Viability Assay, EOL-1; type: cell-based; settings: Homo sapiens, EOL1
Procedure: (§1) EOL-1 (acute myeloid eosinophilic leukemia), MOLM-13 (acute myeloid leukemia), MONO-MAC-1 (acute monocytic leukemia), and MONO-MVAC-6 (acute monocytic leukemia). In vitro screening was performed by Charles River using the CellTiter-Blue® Cell Viability Assay.

[3] = test system: MOLM-13 (acute myeloid leukemia); test: CellTiter-Blue Cell Viability Assay, MOLM-13; type: cell-based; settings: Homo sapiens
Procedure: as §1

[4] = test system: MONO-MAC-1 (acute monocytic leukemia); test: CellTiter-Blue Cell Viability Assay, MONO-MAC-1; type: cell-based
Procedure: as §1

[5] = test system: MONO-MAC-6 (acute monocytic leukemia); test: CellTiter-Blue Cell Viability Assay, MONO-MAC-6; type: cell-based; settings: Homo sapiens
Procedure: as §1

[6] = test system: four hematological cell lines; test: CellTiter-Blue Cell Viability Assay, all four hematological cell lines; type: cell-based; settings: geometric mean over EOL-1, MOLM-13, MONO-MAC-1, MONO-MAC-6; read-out: IC50 [μM] Geomean
Procedure: as §1

[7] = Solubility test by UV-Vis spectroscopy of saturated solutions; type: physicochemical; settings: solvent DMSO
[8] = In vivo MTD study in non-tumor bearing NOD/SCID mice
Procedure: . Group information and dosing details can be seen in the following Table 7.
. Acclimatization occurred for at least 14 days. […] Dosing of 34c was done as a solution in deionized water, initiated on day 1 and continued for 5 days. One mouse in the 50 mg/kg po group and one in the 75 mg/kg po group lost more weight than 10% in the dosing phase of the study. The weight loss in the 50 mg/kg group was observed after receiving three doses of 34c and after receiving four doses of 34c in the […]. A dosing break was made until the end of dosing for both mice and after a couple of days during the 10-day observation period both mice regained their weight. The body weight was measured daily for all three oral treatment groups for the 5 days of dosing and the following 10-day observational period. The mean relative body weight of the oral treatment group can be seen in FIG. 2. […] Since this observation was made only after dosing, it can be considered it was not caused by the compound.

[9] = test system: subcutaneous MV4-11 CDX model; test: In vivo efficacy study in subcutaneous MV4-11 CDX model in NOD/SCID mice; settings: for number of living subjects, day of study 5 / number of living subjects, day of study 6 / number of living subjects, day of study 8 / number of living subjects, day of study 13 / number of living subjects, day of study 26 / number of living subjects, day of study 36: 5 mice

Solubility Ethanol ([1]; bis(2,2,2-trifluoroacetate)): 3.63 g/L (≈ 6.36 mM)
IC50 (c-KIT): 3.2 nM
IC50 (human FLT3-ITD): 6.9 nM
IC50 [2]: 0.05 nM
IC50 [3]: 0.00109 µM
IC50 [4]: 0.1 µM
IC50 [5]: 0.00431 µM
Compound: CN1CCN(Cc2c(O)ccc3[nH]c(C(=O)c4cc5cc(NC(=O)Nc6cc(C(C)(C)C)on6)ccc5o4)cc23)CC1 [Compound 33b, 1-(5-(tert-Butyl)isoxazol-3-yl)-3-(2-(5-hydroxy-4-((4-methylpiperazin-1-yl)methyl)-1H-indole-2-carbonyl)benzofuran-5-yl)urea bis(2,2,2-trifluoroacetate)]
IC50 [6]: 0.00223 µM

Compound: CN(C)Cc1c(O)ccc2[nH]c(C(=O)c3cc4cc(NC(=O)Nc5cc(C(C)(C)C)on5)ccc4o3)cc12 [Compound 34b, 1-(5-tert-Butylisoxazol-3-yl)-3-(2-(4-((dimethylamino)methyl)-5-hydroxy-1H-indole-2-carbonyl)benzofuran-5-yl)urea 2,2,2-trifluoroacetate]
Solubility Ethanol ([1]; 2,2,2-trifluoroacetate): 5.94 g/L (≈ 11.5 mM)
Solubility Water ([1]; 2,2,2-trifluoroacetate): <0.1 g/L
IC50 (c-KIT): 1.8 nM
IC50 (human FLT3-ITD): 3.1 nM
IC50 [2]: 0.02 nM
IC50 [3]: 0.0002 µM
IC50 [4]: 0.1 µM
IC50 [5]: 0.00065 µM
IC50 [6]: 0.00074 µM
Solubility DMSO [7]: Soluble

Compound: CN(C)Cc1c(O)ccc2[nH]c(C(=O)c3cc4cc(NC(=O)Nc5cc(C(C)(C)C)on5)ccc4o3)cc12 [Compound 34c, 1-(5-(tert-Butyl)isoxazol-3-yl)-3-(2-(4-(dimethylamino)methyl)-5-hydroxy-1H-indole-2-carbonyl)benzofuran-5-yl)urea Hydrochloride]
Solubility Ethanol ([1]; Hydrochloride): 2.38 g/L
Solubility Water ([1]; Hydrochloride): 5.77 g/L
clinical signs ([8]; 20 mg/kg and 50 mg/kg po treatment groups): no clinical signs observed
clinical signs ([8]; 75 mg/kg po, the mouse which lost weight, noticed only after dosing, considered not caused by the compound): swelling of the right hind limb and foot
possible (tolerated) dose according to tolerability study ([8]; female, NOD/SCID, mouse, in vivo, po, 5 days): up to 75 mg/kg
body weight loss in the dosing phase ([8]; one mouse in the 50 mg/kg po group and one in the 75 mg/kg po group, daily, 5 days): > 10%
first death (day of study) ([9]; 20 mg/kg po daily 5 days): 9 days
study day after which 1 mouse had to be sacrificed ([9]; 20 mg/kg po daily 5 days (treatment group 2)): 20 days
number of living subjects, day of study 5 ([9]; 20 mg/kg po daily 5 days): 5
number of living subjects, day of study 6 ([9]; 20 mg/kg po daily 5 days): 5
number of living subjects, day of study 8 ([9]; 20 mg/kg po daily 5 days): 5
number of living subjects, day of study 13 ([9]; 20 mg/kg po daily 5 days): 4
number of living subjects, day of study 26 ([9]; 20 mg/kg po daily 5 days): 4
number of living subjects, day of study 36 ([9]; 20 mg/kg po daily 5 days): 0
relative tumor volume, compared with reference compounds ([9]; 20 mg/kg po daily 5 days, Midostaurin 50 mg/kg, Hydrochloride): better results regarding tumor volume measurements than Midostaurin; also recorded: higher efficiency than midostaurin
number of living subjects, day of study 5 ([9]; 50 mg/kg po daily 5 days): 5
number of living subjects, day of study 6 ([9]; 50 mg/kg po daily 5 days): 5
number of living subjects, day of study 8 ([9]; 50 mg/kg po daily 5 days): 5
number of living subjects, day of study 13 ([9]; 50 mg/kg po daily 5 days): 5
number of living subjects, day of study 26 ([9]; 50 mg/kg po daily 5 days): 5
number of living subjects, day of study 36 ([9]; 50 mg/kg po daily 5 days): 5
deaths until day 36 ([9]; 50 mg/kg po daily 5 days, Hydrochloride): No deaths were observed; also recorded: no deaths were noted
relative tumor volume, compared with reference compounds ([9]; 50 mg/kg po daily 5 days, references 50 mg/kg, Hydrochloride): similarly active as Quizartinib; also recorded: much more active than Midostaurin; also recorded: significantly increased efficiency of 34c compared to midostaurin; also recorded: comparable to the efficiency of quizartinib at the same dose
efficacy and tolerability in terms of overall survival / death counts ([9]; 34c 20 and 50 mg/kg, references 50 mg/kg, po daily 5 days, Hydrochloride): better tolerated; also recorded: significantly better efficacy and tolerability in terms of overall survival than midostaurin; also recorded: significantly better efficiency and tolerability (in terms of overall survival) than quizartinib
relative body weight loss ([9]; po daily 5 days, 34c 20 and 50 mg/kg, Midostaurin and Quizartinib 50 mg/kg): less relative body weight loss
